Several values for one entry are separate records, joined by “and”; a condition that tells them apart may be missing. Equal values may be shown once. Read-outs that look alike come from different tables or passages of the source.
Assays:
PWWP2B = experiment: Gene expression of PWWP2B in HepG2 cells exposed to compound (microarray, log2 treatment:control ratio); type: cell-based, human
rodents = details: cited from earlier work; for In vivo GTX: positive when at least one in vivo assay (MN, CA) positive, equivocal considered positive
[1] = test system: conventional in vitro genotoxicity assays; details: cited from earlier work; for Results in the conventional in vitro genotoxicity assays: see Table 5
HepG2 cell [2] = experiment: Class prediction of in vivo genotoxicity by the method of the invention (Ames stratification plus three-gene expression in HepG2); details: for Prediction (class prediction results using the method of the invention): 62 compounds, three replicates, HepG2 24 h; for At least ⅔ genes +?: per single measurement, GTX when at least two out of three genes above reference value
Salmonella typhimurium = details: cited from earlier work
HepG2 cell [3] = test system: HepG2 cell
PNMA6A = experiment: Gene expression of PNMA6A in HepG2 cells exposed to compound (microarray, log2 treatment:control ratio); type: cell-based, human; details: HepG2 cells; for Log2 treatment: control ratio PNMA6A: 24 h exposure, Ames negative compounds, one line per replicate of triplicate experiments; for PNMA6A: expression versus reference value, single measurement of three
C10orf65/HOGA1 = experiment: Gene expression of C10orf65/HOGA1 in HepG2 cells exposed to compound (microarray, log2 treatment:control ratio); type: cell-based, human; details: for Log2 treatment: control ratio C10orf65/HOGA1: 24 h exposure, Ames negative compounds, one line per replicate of triplicate experiments; for C10orf65/HOGA1: expression versus reference value, single measurement of three
SLC40A1 = experiment: Gene expression of SLC40A1 in HepG2 cells exposed to compound (microarray, log2 treatment:control ratio); type: cell-based, human; details: HepG2 cells; for Log2 treatment: control ratio SLC40A1: 24 h exposure, Ames negative compounds, one line per replicate of triplicate experiments; for SLC40A1: expression versus reference value, single measurement of three
LOC100505880 = experiment: Gene expression of LOC100131914/LOC100505880 in HepG2 cells exposed to compound (microarray, log2 treatment:control ratio); type: cell-based, human
[4] = standard in vivo genotoxicity designation

| SMILES | In vitro GTX [1] | Prediction (class prediction results using the method of the invention) (HepG2 cell [2]) | Ames (Salmonella typhimurium) | Standard (rodents; [4]) | Log2 treatment: control ratio PNMA6A (PNMA6A) | Log2 treatment: control ratio C10orf65/HOGA1 (C10orf65/HOGA1) | C10orf65/HOGA1 (C10orf65/HOGA1) | Log2 treatment: control ratio SLC40A1 (SLC40A1) | SLC40A1 (SLC40A1) | PNMA6A (PNMA6A) | other results |
| --- | --- | --- | --- | --- | --- | --- | --- | --- | --- | --- | --- |
| OCCCl [2-Cl] | + |  |  |  |  |  |  |  |  |  | PWWP2B above or below the reference value (PWWP2B): + (Plus sign indicates a value above the reference value); Standard (in vivo genotoxicity designation) (rodents; in vivo): NGTX; Results in the conventional in vitro genotoxicity assays [1]: positive results |
| CC(=O)Nc1ccc2c(c1)Cc1ccccc1-2 [2AAF] | + | GTX+ | + |  |  |  |  |  |  |  | Log2 treatment: control ratio PWWP2B (PWWP2B): −0.045 and −0.14 and 0.042; Standard (in vivo genotoxicity designation) (rodents; in vivo): GTX; In vivo GTX (rodents): +; Average result over three measurements (HepG2 cell [3]): GTX |
| Oc1cccc2cccnc12 [8HQ] | + | GTX+ | + |  |  |  |  |  |  |  | Log2 treatment: control ratio PWWP2B (PWWP2B): 0.014 and −0.165 and −0.069; Standard (in vivo genotoxicity designation) (rodents; in vivo): NGTX; Average result over three measurements (HepG2 cell [3]): GTX |
| CC1=CC(=O)[N-]S(=O)(=O)O1.[K+] [ASK] | − | NGTX | − | NGTX | 0.264 and 0.161 and −0.677 | 0.014 and −0.015 and 0.083 | − (below the reference value) | −0.348 and −0.221 and 0.08 | − (below the reference value) |  |  |
| Nc1ccccc1C(=O)O [AnAc] | + | NGTX | − | NGTX |  |  | − (below the reference value) |  | − (below the reference value) |  | Log2 treatment: control ratio PNMA6A (PNMA6A; listed as AA): 0.167 and −0.628 and 0.562; Log2 treatment: control ratio C10orf65/HOGA1 (C10orf65/HOGA1; listed as AA): −0.045 and −0.061 and 0.002; Log2 treatment: control ratio SLC40A1 (SLC40A1; listed as AA): −0.174 and −0.49 and 0.007 |
| Clc1ccc(C(c2ccc(Cl)cc2)C(Cl)(Cl)Cl)cc1 [DDT] | − | NGTX | − | NGTX | −0.223 and 0.118 and −0.515 | −0.925 and 0.469 and −0.025 |  | 0.685 and 0.118 and 0.493 |  | − (below the reference value) |  |
| CCN(CC)N=O [DEN] | + |  |  |  |  |  |  |  |  |  | LOC100505880 above or below the reference value (LOC100505880): + (Plus sign indicates a value above the reference value); PWWP2B above or below the reference value (PWWP2B): + (Plus sign indicates a value above the reference value); Standard (in vivo genotoxicity designation) (rodents; in vivo): GTX; In vivo GTX (rodents): + |
| CCOP(=S)(OCC)Oc1cc(C)nc(C(C)C)n1 [DZN] | − | NGTX | − | NGTX | −0.352 and −0.624 and −0.03 | −1.12 and −0.738 and −1.077 | − (below the reference value) | 0.569 and 0.773 and 1.44 | + (above the reference value) | − (below the reference value) |  |
| OC[C@@H](O)[C@@H](O)[C@H](O)[C@H](O)CO [Dman] | − | NGTX | − | NGTX | −0.035 and 0.459 and 0.01 | 0.022 and −0.159 and 0.023 | − (below the reference value) | 0.005 and −0.155 and −0.035 | − (below the reference value) |  |  |
| C=CC(=O)OCC [EtAc, Ethylacrylate] | + | GTX | − |  | 0.375 and 0.243 and 0.409 | 0.391 and 0.429 and 0.624 | + (above the reference value) | −0.448 and 0.634 and 0.031 |  |  | Average result over three measurements (HepG2 cell [2]): GTX; At least ⅔ genes +? (HepG2 cell [2]): GTX; Standard (rodents; in vivo): NGTX |
| CCc1ccccc1 [EthylB] | + | NGTX | − | NGTX | 0.313 and 0.434 and 0.392 | −0.18 and 0.116 and −0.084 | − (below the reference value) | −0.23 and −0.141 and 0.295 | − (below the reference value) | + (above the reference value) |  |
| CCOc1ccc(NC(C)=O)cc1 [Phen] | + | NGTX | − | NGTX | −0.023 and 0.218 and −0.237 | 0.043 and 0.056 and 0.034 | − (below the reference value) | −0.646 and 0.127 and −0.048 | − (below the reference value) | − (below the reference value) |  |
| Oc1cccc(O)c1 [RR, Resorcinol] | + | GTX |  | NGTX |  |  | + (above the reference value) |  | + (above the reference value) | + (above the reference value) | Average result over three measurements (HepG2 cell [2]): GTX; Classification of NGTX compounds by the method of the invention (false positives) (HepG2 cell [2]; in vivo NGTX compounds): misclassification; At least ⅔ genes +? (HepG2 cell [2]): GTX; Ames (Salmonella typhimurium; Ames results based on NTP data): −; Results in the conventional in vitro genotoxicity assays [1]: positive results |
| CCC[CH2][Sn]([CH2]CCC)([CH2]CCC)[O][Sn]([CH2]CCC)([CH2]CCC)[CH2]CCC [TBTO] | + | GTX | − | GTX | 0.909 and 0.663 and 0.456 | 0.426 and 0.098 and 0.858 |  | 0.604 and 1.649 and 0.208 |  | + (above the reference value) | Average result over three measurements (HepG2 cell [2]): GTX; At least ⅔ genes +? (HepG2 cell [2]): GTX; In vivo GTX (rodents): + |
| Clc1cc2c(cc1Cl)Oc1cc(Cl)c(Cl)cc1O2 [TCDD] | − | NGTX | − | NGTX | −0.041 and 0.26 and 0.072 | −0.107 and 0.056 and 0.151 |  | 0.169 and −0.21 and 0.104 | − (below the reference value) |  |  |
| CCCCCCCCCCCCCC(=O)O[C@@H]1[C@@H](C)[C@@]2(O)[C@@H](C=C(CO)C[C@]3(O)C(=O)C(C)=C[C@@H]23)[C@H]2C(C)(C)[C@]12OC(C)=O [TPA] | − | NGTX | − | NGTX | −0.493 and −0.137 and −0.26 | 0.108 and −0.423 and 0.14 | − (below the reference value) | −0.327 and 1.338 and 0.199 |  | − (below the reference value) |  |
